Values belong to the compound of their own block, whether it stands above or below them.
Experiments:
Assay in all cases: radiometric filter-binding kinase assay
SRC (human) = SRC (human) (UniProt P12931)
CaMK1 (human) = CaMK1 (human) (UniProt Q14012)
PHKG1 (human) = PHKG1 (human) (UniProt Q16816)
JAK2 JH1 JH2 (human) = JAK2 JH1 JH2 (human) (UniProt O60674)
LCK (mouse) = conditions: accession and sequence are those of the human protein
DYRK1A (human) = DYRK1A (human) (UniProt Q13627)
PRKACA (human) = PRKACA (human) (UniProt P17612)
PIM2 (human) = PIM2 (human) (UniProt Q9P1W9)
PIM2 (human), sequence (Q9P1W9 whole entry, looked up): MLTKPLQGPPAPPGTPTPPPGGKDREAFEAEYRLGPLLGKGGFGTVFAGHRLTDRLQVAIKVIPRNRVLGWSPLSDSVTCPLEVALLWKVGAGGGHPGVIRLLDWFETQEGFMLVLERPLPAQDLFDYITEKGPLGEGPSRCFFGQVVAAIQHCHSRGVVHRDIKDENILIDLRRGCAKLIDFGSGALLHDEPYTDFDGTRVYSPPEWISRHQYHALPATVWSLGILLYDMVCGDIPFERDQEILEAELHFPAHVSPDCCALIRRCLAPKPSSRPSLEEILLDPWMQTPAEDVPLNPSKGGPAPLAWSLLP

CDK2 CCNA2 (human) = CDK2 CCNA2 (human) (UniProt P20248+P24941)
CAMKK2 (human) = CAMKK2 (human) (UniProt Q96RR4)
YES1 (human) = YES1 (human) (UniProt P07947)
MAP3K9 (human) = MAP3K9 (human) (UniProt P80192)
[1] = system: AKT2 (human), P31751 [S474D]
MAPK10 (human) = MAPK10 (human) (UniProt P53779)
MAPK13 (human) = MAPK13 (human) (UniProt O15264)
MAPK13 (human), sequence (O15264 whole entry, looked up): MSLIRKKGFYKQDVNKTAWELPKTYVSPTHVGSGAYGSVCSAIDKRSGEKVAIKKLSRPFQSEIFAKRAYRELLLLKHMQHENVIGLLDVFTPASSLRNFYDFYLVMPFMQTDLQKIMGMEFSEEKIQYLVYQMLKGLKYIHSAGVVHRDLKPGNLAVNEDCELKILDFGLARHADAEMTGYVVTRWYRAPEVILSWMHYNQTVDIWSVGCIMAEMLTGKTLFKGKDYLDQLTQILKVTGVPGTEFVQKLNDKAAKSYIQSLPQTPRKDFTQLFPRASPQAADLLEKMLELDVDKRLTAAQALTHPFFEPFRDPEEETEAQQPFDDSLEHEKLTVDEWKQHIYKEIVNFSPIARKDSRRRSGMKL

SYK (human) = SYK (human) (UniProt P43405)
PAK4 (human) = PAK4 (human) (UniProt O96013)
INSRR (human) = INSRR (human) (UniProt P14616)
RIPK2 (human) = RIPK2 (human) (UniProt O43353)
MST4 (human) = MST4 (human) (UniProt Q9P289); conditions: compound 10.0 µM
PRKAA1 or PRKAA2 (rat) = conditions: accession and sequence are those of the human protein
NUAK1 (human) = NUAK1 (human) (UniProt O60285)
CSNK2A1 (human) = CSNK2A1 (human) (UniProt P68400)
IGF1R (human) = IGF1R (human) (UniProt P08069)
EPHB3 (human) = EPHB3 (human) (UniProt P54753)
EPHB3 (human), sequence (P54753 whole entry, looked up): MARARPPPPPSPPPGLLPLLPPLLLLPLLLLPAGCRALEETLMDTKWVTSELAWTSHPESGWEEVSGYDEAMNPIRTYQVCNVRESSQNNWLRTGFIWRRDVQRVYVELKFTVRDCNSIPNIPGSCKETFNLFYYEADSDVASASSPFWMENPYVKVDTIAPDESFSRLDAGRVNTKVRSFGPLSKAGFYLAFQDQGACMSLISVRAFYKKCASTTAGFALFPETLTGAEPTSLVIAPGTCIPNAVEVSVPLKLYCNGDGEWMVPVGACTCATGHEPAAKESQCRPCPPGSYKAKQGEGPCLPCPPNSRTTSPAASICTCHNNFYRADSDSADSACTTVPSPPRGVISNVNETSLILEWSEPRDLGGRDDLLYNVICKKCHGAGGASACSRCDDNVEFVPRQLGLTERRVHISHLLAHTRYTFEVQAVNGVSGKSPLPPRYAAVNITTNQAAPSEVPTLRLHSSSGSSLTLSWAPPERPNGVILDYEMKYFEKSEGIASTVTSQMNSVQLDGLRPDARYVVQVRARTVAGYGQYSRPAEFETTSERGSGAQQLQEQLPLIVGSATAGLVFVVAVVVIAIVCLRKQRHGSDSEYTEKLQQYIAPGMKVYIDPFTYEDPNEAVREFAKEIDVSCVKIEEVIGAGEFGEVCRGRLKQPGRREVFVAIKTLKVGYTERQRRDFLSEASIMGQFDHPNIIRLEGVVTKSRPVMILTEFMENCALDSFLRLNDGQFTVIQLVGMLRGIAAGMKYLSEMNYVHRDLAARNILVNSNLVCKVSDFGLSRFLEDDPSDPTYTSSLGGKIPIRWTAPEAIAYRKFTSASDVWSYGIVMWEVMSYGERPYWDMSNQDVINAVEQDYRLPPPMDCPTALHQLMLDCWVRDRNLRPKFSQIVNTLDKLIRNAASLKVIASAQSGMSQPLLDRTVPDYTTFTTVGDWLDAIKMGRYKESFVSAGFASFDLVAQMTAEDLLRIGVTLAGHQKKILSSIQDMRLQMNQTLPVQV

MINK1 (human) = MINK1 (human) (UniProt Q8N4C8)
MAP3K11 (human) = MAP3K11 (human) (UniProt Q16584)
MAP3K11 (human), sequence (Q16584 whole entry, looked up): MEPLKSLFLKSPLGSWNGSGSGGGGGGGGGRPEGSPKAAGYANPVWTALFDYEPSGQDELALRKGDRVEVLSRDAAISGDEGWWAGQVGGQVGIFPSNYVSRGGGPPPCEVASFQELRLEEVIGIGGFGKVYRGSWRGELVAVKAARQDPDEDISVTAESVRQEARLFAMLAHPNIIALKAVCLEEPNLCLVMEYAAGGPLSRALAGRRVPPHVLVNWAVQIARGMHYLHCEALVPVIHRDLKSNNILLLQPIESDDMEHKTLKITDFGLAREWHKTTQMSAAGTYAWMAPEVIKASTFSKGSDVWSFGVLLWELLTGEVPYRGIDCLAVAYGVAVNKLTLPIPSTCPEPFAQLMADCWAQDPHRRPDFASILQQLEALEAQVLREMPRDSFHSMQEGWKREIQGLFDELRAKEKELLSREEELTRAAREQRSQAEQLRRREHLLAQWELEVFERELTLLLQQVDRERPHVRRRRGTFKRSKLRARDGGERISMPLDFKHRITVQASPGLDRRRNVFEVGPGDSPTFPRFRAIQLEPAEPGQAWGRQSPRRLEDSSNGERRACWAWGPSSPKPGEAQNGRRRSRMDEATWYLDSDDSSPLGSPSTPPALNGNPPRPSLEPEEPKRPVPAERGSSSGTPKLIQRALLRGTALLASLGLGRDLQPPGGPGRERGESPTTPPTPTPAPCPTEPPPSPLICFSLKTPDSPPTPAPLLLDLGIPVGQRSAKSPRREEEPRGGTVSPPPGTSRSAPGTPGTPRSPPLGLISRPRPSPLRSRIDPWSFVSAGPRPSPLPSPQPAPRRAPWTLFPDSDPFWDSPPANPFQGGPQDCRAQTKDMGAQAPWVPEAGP

MKNK1 (human) = MKNK1 (human) (UniProt Q9BUB5)
MKNK1 (human), sequence (Q9BUB5 whole entry, looked up): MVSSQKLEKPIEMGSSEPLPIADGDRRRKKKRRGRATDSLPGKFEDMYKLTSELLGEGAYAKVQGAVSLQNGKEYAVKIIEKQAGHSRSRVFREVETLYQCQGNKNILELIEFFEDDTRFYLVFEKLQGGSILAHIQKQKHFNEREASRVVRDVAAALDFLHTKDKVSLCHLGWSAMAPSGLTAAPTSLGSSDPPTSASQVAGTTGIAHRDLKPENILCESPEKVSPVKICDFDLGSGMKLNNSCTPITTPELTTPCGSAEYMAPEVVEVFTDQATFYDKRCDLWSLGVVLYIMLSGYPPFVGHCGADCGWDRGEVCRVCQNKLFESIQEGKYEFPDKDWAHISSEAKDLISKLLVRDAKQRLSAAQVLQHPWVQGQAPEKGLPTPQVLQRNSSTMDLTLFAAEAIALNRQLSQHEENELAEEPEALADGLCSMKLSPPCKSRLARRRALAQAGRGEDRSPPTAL

AURKB (human) = AURKB (human) (UniProt Q96GD4)
AURKB (human), sequence (Q96GD4 whole entry, looked up): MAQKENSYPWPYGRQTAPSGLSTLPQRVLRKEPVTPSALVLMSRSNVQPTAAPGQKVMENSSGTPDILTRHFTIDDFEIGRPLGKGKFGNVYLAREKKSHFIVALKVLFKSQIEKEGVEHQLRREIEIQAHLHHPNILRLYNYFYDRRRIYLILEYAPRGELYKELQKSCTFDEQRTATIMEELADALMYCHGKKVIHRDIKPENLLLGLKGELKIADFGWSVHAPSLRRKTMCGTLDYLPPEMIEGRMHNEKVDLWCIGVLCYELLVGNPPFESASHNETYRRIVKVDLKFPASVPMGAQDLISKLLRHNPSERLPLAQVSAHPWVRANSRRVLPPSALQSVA

INSR (human) = INSR (human) (UniProt P06213)
PRKCZ (human) = PRKCZ (human) (UniProt Q05513)
CHEK1 (human) = CHEK1 (human) (UniProt O14757)
NTRK1 (human) = NTRK1 (human) (UniProt P04629)
MAP2K1 (human) = MAP2K1 (human) (UniProt Q02750)
MARK3 (human) = MARK3 (human) (UniProt P27448)
MARK4 (human) = MARK4 (human) (UniProt Q96L34)
MARK4 (human), sequence (Q96L34 whole entry, looked up): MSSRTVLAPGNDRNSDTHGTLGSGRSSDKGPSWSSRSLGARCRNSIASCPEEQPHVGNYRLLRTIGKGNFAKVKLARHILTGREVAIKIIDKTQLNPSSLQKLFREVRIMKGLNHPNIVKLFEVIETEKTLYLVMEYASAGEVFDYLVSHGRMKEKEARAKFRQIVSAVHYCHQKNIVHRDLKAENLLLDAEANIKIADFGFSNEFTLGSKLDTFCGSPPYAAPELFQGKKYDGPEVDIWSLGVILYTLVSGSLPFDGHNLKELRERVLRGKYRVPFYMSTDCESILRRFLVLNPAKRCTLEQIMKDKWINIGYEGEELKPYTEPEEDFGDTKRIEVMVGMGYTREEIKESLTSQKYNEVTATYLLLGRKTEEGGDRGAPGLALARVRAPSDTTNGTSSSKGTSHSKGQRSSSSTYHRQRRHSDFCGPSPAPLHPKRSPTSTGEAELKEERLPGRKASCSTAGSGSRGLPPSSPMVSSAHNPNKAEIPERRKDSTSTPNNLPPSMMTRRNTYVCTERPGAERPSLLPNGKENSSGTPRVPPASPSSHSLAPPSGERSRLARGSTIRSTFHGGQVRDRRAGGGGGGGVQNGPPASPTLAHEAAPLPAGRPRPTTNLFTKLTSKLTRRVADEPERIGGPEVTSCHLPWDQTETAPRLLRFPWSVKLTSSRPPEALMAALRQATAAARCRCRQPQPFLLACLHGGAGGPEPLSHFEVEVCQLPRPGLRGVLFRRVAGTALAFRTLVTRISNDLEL

SRC (human), sequence (P12931 whole entry, looked up): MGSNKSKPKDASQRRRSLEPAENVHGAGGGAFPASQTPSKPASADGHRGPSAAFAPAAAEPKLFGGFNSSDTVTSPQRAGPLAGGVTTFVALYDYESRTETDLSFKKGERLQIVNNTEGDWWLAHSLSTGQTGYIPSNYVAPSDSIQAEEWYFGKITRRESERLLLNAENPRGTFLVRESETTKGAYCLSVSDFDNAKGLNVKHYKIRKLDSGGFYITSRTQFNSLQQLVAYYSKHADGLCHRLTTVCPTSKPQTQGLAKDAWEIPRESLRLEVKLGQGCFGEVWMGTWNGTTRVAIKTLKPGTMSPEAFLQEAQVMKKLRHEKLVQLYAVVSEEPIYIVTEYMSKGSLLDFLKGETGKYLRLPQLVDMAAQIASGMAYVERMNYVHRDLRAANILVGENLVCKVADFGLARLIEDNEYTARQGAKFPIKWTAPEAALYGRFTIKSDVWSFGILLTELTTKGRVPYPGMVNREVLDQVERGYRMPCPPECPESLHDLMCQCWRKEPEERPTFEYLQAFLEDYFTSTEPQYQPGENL
CaMK1 (human), sequence (Q14012 whole entry, looked up): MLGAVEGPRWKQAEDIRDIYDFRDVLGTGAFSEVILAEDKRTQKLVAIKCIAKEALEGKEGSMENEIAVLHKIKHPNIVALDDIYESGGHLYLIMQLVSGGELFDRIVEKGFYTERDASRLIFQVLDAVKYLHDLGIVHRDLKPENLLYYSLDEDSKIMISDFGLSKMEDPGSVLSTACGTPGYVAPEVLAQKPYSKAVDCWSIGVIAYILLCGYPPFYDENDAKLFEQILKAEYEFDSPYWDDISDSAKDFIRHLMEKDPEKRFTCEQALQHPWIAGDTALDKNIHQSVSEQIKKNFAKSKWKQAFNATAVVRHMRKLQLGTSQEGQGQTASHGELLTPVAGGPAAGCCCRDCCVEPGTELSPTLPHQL

residual activity (SRC (human); compound 10.0 µM): 80%
residual activity (CaMK1 (human); compound 10.0 µM): 74%
residual activity (PHKG1 (human); compound 10.0 µM): 114%
residual activity (PHKG1 (human); compound 100.0 µM): 86%
residual activity (JAK2 JH1 JH2 (human); compound 10.0 µM): 101%
residual activity (LCK (mouse); compound 10.0 µM): 106%
residual activity (LCK (mouse); compound 100.0 µM): 72%
residual activity (DYRK1A (human); compound 10.0 µM): 97%
residual activity (DYRK1A (human); compound 100.0 µM): 90%
residual activity (PRKACA (human); compound 10.0 µM): 101%
residual activity (PRKACA (human); compound 100.0 µM): 70%
residual activity (PIM2 (human); compound 10.0 µM): 93%
residual activity (CDK2 CCNA2 (human); compound 10.0 µM): 116%
residual activity (CDK2 CCNA2 (human); compound 100.0 µM): 92%
residual activity (CAMKK2 (human); compound 10.0 µM): 90%
residual activity (YES1 (human); compound 10.0 µM): 96%
residual activity (MAP3K9 (human); compound 10.0 µM): 101%
residual activity ([1]; compound 10.0 µM): 74%
residual activity (MAPK10 (human); compound 10.0 µM): 99%
residual activity (MAPK13 (human); compound 10.0 µM): 81%
residual activity (MAPK13 (human); compound 100.0 µM): 116%
residual activity (SYK (human); compound 10.0 µM): 105%
residual activity (PAK4 (human); compound 10.0 µM): 90%
residual activity (INSRR (human); compound 10.0 µM): 88%
residual activity (RIPK2 (human); compound 10.0 µM): 90%
residual activity (MST4 (human)): 99%
residual activity (PRKAA1 or PRKAA2 (rat); compound 10.0 µM): 92%
residual activity (PRKAA1 or PRKAA2 (rat); compound 100.0 µM): 60%
residual activity (NUAK1 (human); compound 10.0 µM): 97%
residual activity (CSNK2A1 (human); compound 10.0 µM): 110%
residual activity (CSNK2A1 (human); compound 100.0 µM): 101%
residual activity (IGF1R (human); compound 10.0 µM): 88%
residual activity (EPHB3 (human); compound 10.0 µM): 107%
residual activity (MINK1 (human); compound 10.0 µM): 72%
residual activity (MAP3K11 (human); compound 10.0 µM): 73%
residual activity (MKNK1 (human); compound 10.0 µM): 97%
residual activity (AURKB (human); compound 10.0 µM): 88%
residual activity (INSR (human); compound 10.0 µM): 95%
residual activity (PRKCZ (human); compound 10.0 µM): 108%
residual activity (CHEK1 (human); compound 10.0 µM): 90%
residual activity (CHEK1 (human); compound 100.0 µM): 96%
residual activity (NTRK1 (human); compound 10.0 µM): 103%
residual activity (MAP2K1 (human); compound 10.0 µM): 89%
residual activity (MAP2K1 (human); compound 100.0 µM): 99%
residual activity (MARK3 (human); compound 10.0 µM): 91%
residual activity (MARK4 (human); compound 10.0 µM): 94%
SMILES: Cc1ccc2c(c1)C(=O)[C@@]1(O)CCN(c3ccccc3)C1=N2

residual activity (SRC (human); compound 1.0 µM): 57%
residual activity (SRC (human); compound 10.0 µM): 64%
residual activity (CaMK1 (human); compound 1.0 µM): 90%
residual activity (CaMK1 (human); compound 10.0 µM): 80%
residual activity (PHKG1 (human); compound 1.0 µM): 5%
residual activity (PHKG1 (human); compound 10.0 µM): 4%
residual activity (JAK2 JH1 JH2 (human); compound 1.0 µM): 34%
residual activity (JAK2 JH1 JH2 (human); compound 10.0 µM): 18%
residual activity (LCK (mouse); compound 1.0 µM): 35%
residual activity (LCK (mouse); compound 10.0 µM): 33%
residual activity (DYRK1A (human); compound 1.0 µM): 73%
residual activity (DYRK1A (human); compound 10.0 µM): 81%
residual activity (PRKACA (human); compound 1.0 µM): 101%
residual activity (PRKACA (human); compound 10.0 µM): 83%
residual activity (PIM2 (human); compound 1.0 µM): 93%
residual activity (PIM2 (human); compound 10.0 µM): 78%
residual activity (CDK2 CCNA2 (human); compound 1.0 µM): 100%
residual activity (CDK2 CCNA2 (human); compound 10.0 µM): 99%
residual activity (CAMKK2 (human); compound 1.0 µM): 112%
residual activity (CAMKK2 (human); compound 10.0 µM): 86%
residual activity (YES1 (human); compound 1.0 µM): 43%
residual activity (YES1 (human); compound 10.0 µM): 58%
residual activity (MAP3K9 (human); compound 1.0 µM): 28%
residual activity (MAP3K9 (human); compound 10.0 µM): 8%
residual activity ([1]; compound 1.0 µM): 72%
residual activity ([1]; compound 10.0 µM): 98%
residual activity (MAPK10 (human); compound 1.0 µM): 99%
residual activity (MAPK10 (human); compound 10.0 µM): 77%
residual activity (MAPK13 (human); compound 1.0 µM): 112%
residual activity (MAPK13 (human); compound 10.0 µM): 86%
residual activity (SYK (human); compound 1.0 µM): 95%
residual activity (SYK (human); compound 10.0 µM): 87%
residual activity (PAK4 (human); compound 1.0 µM): 53%
residual activity (PAK4 (human); compound 10.0 µM): 41%
residual activity (INSRR (human); compound 1.0 µM): 77%
residual activity (INSRR (human); compound 10.0 µM): 66%
residual activity (RIPK2 (human); compound 1.0 µM): 14%
residual activity (RIPK2 (human); compound 10.0 µM): 6%
residual activity (MST4 (human)): 47%
residual activity (PRKAA1 or PRKAA2 (rat); compound 1.0 µM): 10%
residual activity (PRKAA1 or PRKAA2 (rat); compound 10.0 µM): 9%
residual activity (NUAK1 (human); compound 1.0 µM): 35%
residual activity (NUAK1 (human); compound 10.0 µM): 35%
residual activity (CSNK2A1 (human); compound 1.0 µM): 118%
residual activity (CSNK2A1 (human); compound 10.0 µM): 107%
residual activity (IGF1R (human); compound 1.0 µM): 89%
residual activity (IGF1R (human); compound 10.0 µM): 92%
residual activity (EPHB3 (human); compound 1.0 µM): 40%
residual activity (EPHB3 (human); compound 10.0 µM): 27%
residual activity (MINK1 (human); compound 1.0 µM): 5%
residual activity (MINK1 (human); compound 10.0 µM): 1%
residual activity (MAP3K11 (human); compound 1.0 µM): 5%
residual activity (MAP3K11 (human); compound 10.0 µM): 3%
residual activity (MKNK1 (human); compound 1.0 µM): 47%
residual activity (MKNK1 (human); compound 10.0 µM): 34%
residual activity (AURKB (human); compound 1.0 µM): 6%
residual activity (AURKB (human); compound 10.0 µM): 4%
residual activity (INSR (human); compound 1.0 µM): 104%
residual activity (INSR (human); compound 10.0 µM): 105%
residual activity (PRKCZ (human); compound 1.0 µM): 97%
residual activity (PRKCZ (human); compound 10.0 µM): 95%
residual activity (CHEK1 (human); compound 1.0 µM): 79%
residual activity (CHEK1 (human); compound 10.0 µM): 64%
residual activity (NTRK1 (human); compound 1.0 µM): 30%
residual activity (NTRK1 (human); compound 10.0 µM): 28%
residual activity (MAP2K1 (human); compound 1.0 µM): 78%
residual activity (MAP2K1 (human); compound 10.0 µM): 75%
residual activity (MARK3 (human); compound 1.0 µM): 31%
residual activity (MARK3 (human); compound 10.0 µM): 41%
residual activity (MARK4 (human); compound 1.0 µM): 57%
residual activity (MARK4 (human); compound 10.0 µM): 42%
SMILES: COc1cc2ncn(-c3cc(OCc4ccccc4S(C)(=O)=O)c(C#N)s3)c2cc1OC
